Tested on: platelet reactivity
Experiment: Platelet reactivity by the VASP assay after ticagrelor loading dose
Assay type: in vivo, human (patients with myocardial infarction)
Settings: median [interquartile range]; for time to achieve platelet inhibition below the cut-off value for HPR (VASP): HPR = platelet reactivity index >50%
Procedure: Consecutive STEMI and NSTEMI patients admitted to the study site (Cardiology Department, Dr. A. Jurasz University Hospital, Bydgoszcz, Poland) were screened for eligibility. After admission to the study centre, confirmation of the initial diagnosis of STEMI or NSTEMI, and provision of a written informed consent to participate in the trial, all study participants received an oral 300 mg LD of plain aspirin (Polpharma SA, Starogard Gdański, Poland) and 180 mg LD ticagrelor in integral tablets with 250 mL tap water. Subsequently, within 15 minutes of ticagrelor LD, all patients underwent coronary angiography followed by PCI as required. During the periprocedural period, all study participants received unfractionated heparin in body weight adjusted dose according to the European Society of Cardiology (ESC) recommendations. Plasma concentrations of ticagrelor and its active metabolite, as well as their antiplatelet effect, were evaluated according to the sampling schedule employed at our centre in previous PK/PD study (pre-treatment, 0.5 h, 1 h, 2 h, 3 h, 4 h, 6 h and 12 h post ticagrelor LD).
Blood samples for PK/PD evaluation were obtained from an 18-gauge cannula inserted into one of the forearm veins. The first 5 mL blood was discarded to avoid spontaneous platelet activation. In each patient specimens were collected at the eight pre-defined time. Detailed description of blood sample processing has been published in the study protocol (S1 File).
Platelet reactivity was assessed using VASP and Multiplate. The VASP assay (Biocytex, Inc., Marseille, France) was used in all study participants, while Multiplate (Roche Diagnostics International Ltd., Rotkreuz, Switzerland) was used in all except in those treated with glycoprotein (GP) IIb/IIIa receptor inhibitors. Pharmacodynamic evaluation was performed according to the manufacturers' instructions. HPR was defined as platelet reactivity index >50% for the VASP assay and AUC >46 units (U) for Multiplate. […]
Table 1 Inclusion and exclusion criteria of the PINPOINT study
Inclusion criteria Exclusion criteria
▸ Provision of informed consent prior to any ▸ Treatment with ticlopidine, clopidogrel, prasugrel or ticagrelor within study-specific procedure 14 days before the study enrolment
▸ Diagnosis of STEMI or NSTEMI ▸ Hypersensitivity to ticagrelor
▸ Men or non-pregnant women ▸ Current treatment with oral anticoagulant or chronic therapy with low-molecular-weight heparin
▸ Provision of informed consent for angiography ▸ Active bleeding […]
▸ History of intracranial haemorrhage
▸ Fibrinolytic treatment during the index event
▸ Recent gastrointestinal bleeding (within 30 days)
▸ History of coagulation disorders
▸ History of moderate or severe hepatic impairment
▸ History of major surgery or severe trauma (within 3 months)
▸ Second or third degree atrioventricular block during screening for […]
▸ Patient requiring dialysis
▸ Manifest infection or inflammatory state
▸ Killip class III or IV during screening for eligibility
▸ Current therapy with strong CYP3A inhibitors or strong CYP3A […]
NSTEMI, non-ST-elevation myocardial infarction; PCI, percutaneous coronary intervention; STEMI, ST-elevation myocardial infarction. […]
Assessment of pharmacodynamics ticagrelor, β-blockers, statins and ACE inhibitors or angio-Platelet VASP assay (Biocytex, Marseille, France) will be tensin II receptor blockers, if not contraindicated. applied to all study participants at all predeﬁned time Morphine will be used at the discretion of the ambulance points. MEA (Roche Diagnostics International, Rotkreuz, staff and the attending physician. The type of implanted Switzerland) will be used at all predeﬁned time points stent and choice of the access site for coronary invasive ( ﬁgure 1) for all study participants with the exception of procedure (radial or femoral ) will be at the discretion of those treated with glycoprotein IIb/IIIa (GP IIb/IIIa) the operator. During the periprocedural period, all study […]

## CCCSc1nc(N[C@@H]2C[C@H]2c2ccc(F)c(F)c2)c2nnn([C@@H]3C[C@H](OCCO)[C@@H](O)[C@H]3O)c2n1 [ticagrelor]
NSTEMI, 0.5 h after 180 mg ticagrelor LD
  Platelet reactivity (VASP): 57.0 [30.2–89.4] %
NSTEMI, 1 h after 180 mg ticagrelor LD
  Platelet reactivity (VASP): 40.8 [23.7–69.2] %
NSTEMI, 3 h after 180 mg ticagrelor LD
  Platelet reactivity (VASP): 32.2 [14.7–38.7] %
NSTEMI, 4 h after 180 mg ticagrelor LD
  Platelet reactivity (VASP): 21.1 [17.5–43.1] %
NSTEMI
  time to achieve platelet inhibition below the cut-off value for HPR (VASP): 1.0 [0.5–2.0] h
STEMI, 0.5 h after 180 mg ticagrelor LD
  Platelet reactivity (VASP): 83.1 [74.5–87.8] %
STEMI, 1 h after 180 mg ticagrelor LD
  Platelet reactivity (VASP): 80.7 [40.4–90.5] %
STEMI, 3 h after 180 mg ticagrelor LD
  Platelet reactivity (VASP): 45.0 [26.4–80.9] %
STEMI, 4 h after 180 mg ticagrelor LD
  Platelet reactivity (VASP): 36.5 [22.2–69.7] %
STEMI
  time to achieve platelet inhibition below the cut-off value for HPR (VASP): 2.5 [1.0–6.0] h

From paper PMC5638327, “Comparison of bioavailability and antiplatelet action of ticagrelor in patients with ST-elevation myocardial infarction and non-ST-elevation myocardial infarction: A prospective, observational, single-centre study” (PLoS ONE, 2017)
